Series [1] deals with KPC1242, Panc-1, AsPC-1, HCT-116, MDA-MB-231, OVCAR-4, OVCAR-8 cancer cell lines. The series can be described thus: Cell growth (IncuCyte confluence) in cancer cell lines. It is filed as cell-based, murine, human. The note with it: for cell confluency: increasing concentrations 0.1 μM-10 μM, each of the cancer cells. An excerpt: (§1) Murine pancreatic cancer cells KPC1242 (David Tuveson, Cold Spring Harbor), human pancreatic cancer cells, Panc-1 (ATCC: CRL-1469), human breast cancer cells MDA-MB-231 (ATCC: CRM-HTB-26), and human pancreatic stellate cells HPSC (Rosa F. Hwang, MD Anderson cancer) were all cultured in DMEM (Gibco ThermoFisher Scientific, Waltham, MA, Cat #11965084) containing 10% v/v fetal bovine serum (Omega Scientific, Inc., Tarzana, CA, Cat #FB-12). Human pancreatic cancer cells AsPC-1 (ATCC: CRL-1682), human ovarian cancer cells OVCAR-8 (NIH: CVCL-1629), and human ovarian cancer cells OVCAR-4 (NIH: CVCL-1627) were all cultured in DMEM (Gibco, Cat #22400089) containing 10% v/v fetal bovine serum (Omega Scientific). Human colon cancer cells HCT-116 (ATCC: CCL-247) were cultured in McCoy's 5A Modified Medium (Gibco, Cat #16600082) containing 10% v/v fetal bovine serum (Omega Scientific). Human pancreatic duct epithelial cells HPNE (ATCC: CRL-4023) were cultured in DMEM and 200 mM L-Glutamine and 7.5% w/v NaCO3 further supplemented with 15% v/v fetal bovine serum, M3-Base A (Incell, San Antonio, TX), 1M D-Glucose (Gibco Cat #J60067.EQE), 100 μg/mL human EGF (Gibco Cat #PHG0313) and 10 mg/mL puromycin (ThermoFisher, Cat #A1113802).

In series [2] the test system is HPNE and HPSC non-transformed cells. As to the kind of experiment: Cell growth (confluence) of normal non-transformed cells. Format: cell-based, human. The note with it: for sensitivity of normal non-transformed cells compared to cancer cells: HPNE, HPSC versus cancer cells. How it is done:
To test the off-target effects of the refined MMe analogs on normal non-transformed cells, the growth of HPNE cells (FIGS. 11A, 11D, and 11G), used as a surrogate for normal pancreatic ductal epithelium, or normal stromal HPSC cells (FIGS. 11B, 11E, and 11H) were measured in increasing concentrations of MMe, pCF3-MMe, or mCF3-MMe and compared to the vehicle control.
as §1

Series [3] has as its system KPC1242 cells. As to the kind of experiment: Seahorse Cell Mito Stress Test (oxygen consumption rate). Format: cell-based, murine. The note with it: 24 hours treatment, increasing concentrations. On the procedure:
To determine if the newly synthesized variants retain this functional specificity, further studies were conducted to determine if pCF3-MMe effectively impacts mitochondrial function and/or induces bioenergetic stress. KPC1242 cells were treated for 24 hours with increasing concentrations of MMe or pCF3-MMe, and oxygen consumption rate (OCR) was measured as a surrogate for oxidative phosphorylation linked mitochondrial respiration.
Cells were plated to Seahorse XF96 cell culture microplates at 20,000 cells/well. Stock compounds in DMSO were diluted in RPMI medium to a final concentration in […] volume, incubated at 37° C. for 24 hours, centrifuged at 200×g for 2 minutes, and conditioned medium removed and replaced with serum-free RPMI […]. Oxygen consumption (OCR) and extracellular flux (ECAR) were measured after injections of oligomycin (1 mg/mL), dinitrophenol […], rotenone […], and antimycin A […]. Analysis was performed by normalizing OCR and ECAR readouts to vehicle controls. Complex I and II activity were analyzed after permeabilization of the cells.

Series [4] concerns AsPC-1 cells. As to the kind of experiment: TMRE retention (mitochondrial depolarization) by flow cytometry in AsPC-1. It is filed as cell-based, human. The note with it: AsPC-1, 1 hour treatment. How it is done:
(§2) AsPC-1 and HPSC cells were serum-starved overnight, loaded with tetramethylrhodamine ethyl ester (TMRE), and treated for 1 hour with the indicated concentrations of MMe or pCF3-MMe or, as the vehicle control, DMSO. Mitochondrial TMRE retention was measured by flow cytometry. Representative histograms of n=3 of TMRE fluorescence in AsPC-1 (FIG. 4A) and HPSC (FIG. 4B) in response to treatment. […] Total cellular ATP levels were analyzed using a luminescent ATP detection assay of KPC1242 cells treated with MMe (0.7 μM) or pCF3-MMe (3 μM), and changes in ATP levels were assayed (FIG. 4E). Representatives immunoblot analyses of phosphorylated and total AMPK levels (FIG. 4F) and densitometric quantification (FIG. 4G) in KPC1242 cells treated with MMe (0.7 μM) or pCF3-MMe (3 μM). […] Values are mean±SD from 3 biological replicates. Statistical differences in a, c, and e were determined using Student's t-test (*, p<0.05; **, p<0.01; ***, p<0.001, ns: not significant).
(§3) TPP-conjugated compounds are known to effectively target the mitochondria of cancer cells. Thus, the efficacy of pCF3-MMe to effectively target the mitochondria of cancer cells was tested and compared to normal cells using tetramethylrhodamine ethyl ester perchlorate (TMRE), a cell-permeant, positively-charged dye that accumulates in active mitochondria, and is released into the cytosol upon mitochondrial damage. […]
In general terms: Flow cytometry measures light scatter and fluorescence of single cells or particles in a stream.

The subject of series [5] is HPSC cells. The series can be described thus: TMRE retention (mitochondrial depolarization) by flow cytometry in HPSC. Format: cell-based, human. The settings on record: HPSC cell line, 1 hour treatment. How it is done: as §2, §3
For series [6], the system named is KPC1242 cells. As to the kind of experiment: Luminescent ATP detection assay. It is filed as cell-based, murine. The note with it: 24 hours; 0.7 μM MMe or 3 μM pCF3-MMe. How it is done:
The functional consequence of inhibiting mitochondria complex I and subsequently OXPHOS is a reduction of overall ATP levels in the cell. The ability of MMe to reduce ATP levels was previously reported in numerous cancer cell types. Thus, further studies were conducted to explore if pCF3-MMe retained similar properties. […] Cells, including cancer cells, must maintain a high ATP:ADP ratio to maintain cellular functions and survival. Moreover, AMP levels rise whenever the ATP:ADP ratio decreases, and an increase in the AMP:ATP ratio signals an energetic crisis in the cell. This energetic crisis is sensed by the master regulator AMP-Activated Protein Kinase (AMPK), which is activated through Thr172 phosphorylation and controls many signaling pathways ranging from energy metabolism to cellular growth. Therefore, further studies were conducted to evaluate if the reduction in ATP levels induced by MMe or pCF3-MMe is sufficient to activate AMPK.
Intracellular ATP levels were determined in cell lysates using a Luminescent ATP Detection Assay Kit per the manufacturer's directions (Abcam, Cambridge, UK, Cat #ab113849).

The structures appear in SMILES notation.

In the case of `N=C(N)NC(=N)NCCCCCCCCCC[P+](c1ccccc1)(c1ccccc1)c1ccccc1.[Br-]` [MMe, 10-[(carbamimidamidomethanimidoyl)amino]decyl-triphenylphosphonium bromide, reference compound], the cell confluency result in series [1] is reported as “decreased in a concentration-dependent manner”. The “sensitivity of normal non-transformed cells compared to cancer cells” value in series [2] is given as “more than a log less sensitive”. Besides, the “basal OCR, ATP-linked respiration, and maximal respiratory capacity” value in series [3] is recorded as “concentration-dependent decrease”. Also, the “TMRE accumulation within the mitochondria” value in series [4] was “significantly reduced TMRE accumulation”; in series [5], “did not affect TMRE accumulation”. The “levels of ATP” value in series [6] is listed as “significantly reduced”.
As for `N=C(N)NC(=N)NCCCCCCCCCC[P+](c1ccc(C(F)(F)F)cc1)(c1ccc(C(F)(F)F)cc1)c1ccc(C(F)(F)F)cc1.[Br-]` [pCF3-MMe, (10-(3-carbamimidoylguanidino)decyl)tris(4-(trifluoromethyl)phenyl)phosphonium bromide], in series [1], the “efficacy compared to MMe in several types of cancer” value is reported as “only a slight change in efficacy” and the cell confluency entry is “decreased in a concentration-dependent manner”. In series [2], the “reduction in toxicity to normal cells compared to MMe” value was about 10 fold and the “sensitivity of normal non-transformed cells compared to cancer cells” value was “more than a log less sensitive”. In addition, the “toxic effects towards non-transformed HPNE and HPSC-1 cells” value in series [2] (compared to the parent MMe and the mCF3-MMe analog) is “least toxic effects”. Moreover, the “basal OCR, ATP-linked respiration, and maximal respiratory capacity” value in series [3] is on record as “concentration-dependent decrease”. In addition, the “TMRE accumulation within the mitochondria” value in series [4] is listed as “significantly reduced TMRE accumulation”. Further, in series [5], the “TMRE accumulation within the mitochondria” value was “did not affect TMRE accumulation”. Moreover, the “levels of ATP” value in series [6] is “significantly reduced”.
